# From PubChem BioAssay AID1963986 (Molecular Pharmacology Branch, DTP, NCI, 2024)
# System: 171881-019-R-J1-PDC tumor spheroid viability
# Test: Anticancer human tumor 171881-019-R-J1-PDC patient-derived invasive breast carcinoma cell line growth inhibition [PI3K]
# Settings: spheroids with HUVEC and MSC; for IC50: curve of first compound; for viability, T/C: stronger effect = lower value
# In short: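 Tumor cells grown as multi-cell spheroids with HUVEC endothelial cells and MSC fibroblast-like stroma were treated with targeted agents combined with inavolisib, alpelisib, duvelisib or copanlisib. Doses fell in half-log steps from near clinical Cmax, else from 10 microM. Viability was measured.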
# [1] = second compound 0.00316 µM, first compound 0.0316 µM
# [2] = second compound 0.00316 µM, first compound 0.1 µM
# [3] = second compound 0.00316 µM, first compound 0.316 µM
# [4] = second compound 0.00316 µM, first compound 1 µM
# [5] = second compound 0.00316 µM, first compound 3.16 µM
# [6] = second compound 0.00316 µM, first compound 10 µM
# [7] = second compound 0.01 µM, first compound 0.0316 µM
# [8] = second compound 0.01 µM, first compound 0.1 µM
# [9] = second compound 0.01 µM, first compound 0.316 µM
# [10] = second compound 0.01 µM, first compound 1 µM
# [11] = second compound 0.01 µM, first compound 3.16 µM
# [12] = second compound 0.01 µM, first compound 10 µM
# [13] = second compound 0.0316 µM, first compound 0.0316 µM
# [14] = second compound 0.0316 µM, first compound 0.1 µM
# [15] = second compound 0.0316 µM, first compound 0.316 µM
# [16] = second compound 0.0316 µM, first compound 1 µM
# [17] = second compound 0.0316 µM, first compound 3.16 µM
# [18] = second compound 0.0316 µM, first compound 10 µM
# [19] = second compound 0.1 µM, first compound 0.0316 µM
# [20] = second compound 0.1 µM, first compound 0.1 µM
# [21] = second compound 0.1 µM, first compound 0.316 µM
# [22] = second compound 0.1 µM, first compound 1 µM
# [23] = second compound 0.1 µM, first compound 3.16 µM
# [24] = second compound 0.1 µM, first compound 10 µM
# [25] = second compound 0.316 µM, first compound 0.0316 µM
# [26] = second compound 0.316 µM, first compound 0.1 µM
# [27] = second compound 0.316 µM, first compound 0.316 µM
# [28] = second compound 0.316 µM, first compound 1 µM
# [29] = second compound 0.316 µM, first compound 3.16 µM
# [30] = second compound 0.316 µM, first compound 10 µM
# [31] = second compound 1 µM, first compound 0.0316 µM
# [32] = second compound 1 µM, first compound 0.1 µM
# [33] = second compound 1 µM, first compound 0.316 µM
# [34] = second compound 1 µM, first compound 1 µM
# [35] = second compound 1 µM, first compound 3.16 µM
# [36] = second compound 1 µM, first compound 10 µM
# [37] = second compound 0.00316 µM, first compound 0.000316 µM
# [38] = second compound 0.00316 µM, first compound 0.001 µM
# [39] = second compound 0.00316 µM, first compound 0.00316 µM
# [40] = second compound 0.00316 µM, first compound 0.01 µM
# [41] = second compound 0.01 µM, first compound 0.000316 µM
# [42] = second compound 0.01 µM, first compound 0.001 µM
# [43] = second compound 0.01 µM, first compound 0.00316 µM
# [44] = second compound 0.01 µM, first compound 0.01 µM
# [45] = second compound 0.0316 µM, first compound 0.000316 µM
# [46] = second compound 0.0316 µM, first compound 0.001 µM
# [47] = second compound 0.0316 µM, first compound 0.00316 µM
# [48] = second compound 0.0316 µM, first compound 0.01 µM
# [49] = second compound 0.1 µM, first compound 0.000316 µM
# [50] = second compound 0.1 µM, first compound 0.001 µM
# [51] = second compound 0.1 µM, first compound 0.00316 µM
# [52] = second compound 0.1 µM, first compound 0.01 µM
# [53] = second compound 0.316 µM, first compound 0.000316 µM
# [54] = second compound 0.316 µM, first compound 0.001 µM
# [55] = second compound 0.316 µM, first compound 0.00316 µM
# [56] = second compound 0.316 µM, first compound 0.01 µM
# [57] = second compound 1 µM, first compound 0.000316 µM
# [58] = second compound 1 µM, first compound 0.001 µM
# [59] = second compound 1 µM, first compound 0.00316 µM
# [60] = second compound 1 µM, first compound 0.01 µM
# 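Also: spheroids exposed to compound for 7 days before viability read.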
# 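For viability, T/C in this document: 100% = DMSO vehicle-treated spheroids.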
smiles,measurement,setting,value
C=CC(=O)N1CCN(c2nc(=O)n(-c3c(C)ccnc3C(C)C)c3nc(-c4c(O)cccc4F)c(F)cc23)C(C)C1 (stereo not drawn) + CC(Nc1ccc2c(c1)OCCn1cc(N3C(=O)OCC3C(F)F)nc1-2)C(N)=O,IC50,second compound 0.00316 µM,9.11 µM
same,IC50,second compound 0.01 µM,7.32 µM
same,IC50,second compound 0.0316 µM,3.97 µM
same,IC50,second compound 0.1 µM,< 0.0316 µM
same,IC50,second compound 0.316 µM,< 0.0316 µM
same,IC50,second compound 1 µM,< 0.0316 µM
same,"viability, T/C",[1],96.8%
same,"viability, T/C",[2],90.1%
same,"viability, T/C",[3],92.8%
same,"viability, T/C",[4],93.1%
same,"viability, T/C",[5],88.5%
same,"viability, T/C",[6],46.6%
same,"viability, T/C",[7],79.5%
same,"viability, T/C",[8],84.9%
same,"viability, T/C",[9],78.5%
same,"viability, T/C",[10],84.6%
same,"viability, T/C",[11],79%
same,"viability, T/C",[12],39.1%
same,"viability, T/C",[13],52.7%
same,"viability, T/C",[14],56.2%
same,"viability, T/C",[15],52.1%
same,"viability, T/C",[16],57.7%
same,"viability, T/C",[17],54.7%
same,"viability, T/C",[18],31.7%
same,"viability, T/C",[19],37.6%
same,"viability, T/C",[20],37.8%
same,"viability, T/C",[21],40.2%
same,"viability, T/C",[22],36.3%
same,"viability, T/C",[23],39.2%
same,"viability, T/C",[24],22.1%
same,"viability, T/C",[25],26.1%
same,"viability, T/C",[26],29.2%
same,"viability, T/C",[27],27.8%
same,"viability, T/C",[28],30%
same,"viability, T/C",[29],26.7%
same,"viability, T/C",[30],12.6%
same,"viability, T/C",[31],20.2%
same,"viability, T/C",[32],21.7%
same,"viability, T/C",[33],20.7%
same,"viability, T/C",[34],22.6%
same,"viability, T/C",[35],20.7%
same,"viability, T/C",[36],10.7%
Cn1ncnc1[C@H]1c2n[nH]c(=O)c3cc(F)cc(c23)N[C@@H]1c1ccc(F)cc1 + COc1c(OCCCN2CCOCC2)ccc2c3n(c(=NC(=O)c4cnc(N)nc4)nc12)CCN3,IC50,second compound 0.00316 µM,> 0.1 µM
same,IC50,second compound 0.01 µM,< 0.000316 µM
same,IC50,second compound 0.0316 µM,< 0.000316 µM
same,IC50,second compound 0.1 µM,< 0.000316 µM
same,IC50,second compound 0.316 µM,< 0.000316 µM
same,IC50,second compound 1 µM,< 0.000316 µM
same,"viability, T/C",[37],65.8%
same,"viability, T/C",[38],69.5%
same,"viability, T/C",[39],62.6%
same,"viability, T/C",[40],75%
same,"viability, T/C",[1],59.7%
same,"viability, T/C",[2],53.5%
same,"viability, T/C",[41],43.3%
same,"viability, T/C",[42],47.2%
same,"viability, T/C",[43],43.6%
same,"viability, T/C",[44],49.6%
same,"viability, T/C",[7],41.7%
same,"viability, T/C",[8],42%
same,"viability, T/C",[45],24.2%
same,"viability, T/C",[46],24.2%
same,"viability, T/C",[47],21.8%
same,"viability, T/C",[48],24.2%
same,"viability, T/C",[13],23.6%
same,"viability, T/C",[14],20.2%
same,"viability, T/C",[49],7.63%
same,"viability, T/C",[50],7.42%
same,"viability, T/C",[51],8.65%
same,"viability, T/C",[52],7.87%
same,"viability, T/C",[19],7.14%
same,"viability, T/C",[20],6.55%
same,"viability, T/C",[53],2.06%
same,"viability, T/C",[54],1.56%
same,"viability, T/C",[55],1.67%
same,"viability, T/C",[56],1.78%
same,"viability, T/C",[25],2.25%
same,"viability, T/C",[26],1.69%
same,"viability, T/C",[57],1.89%
same,"viability, T/C",[58],1.19%
same,"viability, T/C",[59],1.15%
same,"viability, T/C",[60],1.21%
same,"viability, T/C",[31],1.01%
same,"viability, T/C",[32],0.97%
Cn1nccc1Nc1nccc(-c2ccn(C(CO)c3ccc(Cl)c(F)c3)c(=O)c2)n1 (stereo not drawn) + COc1c(OCCCN2CCOCC2)ccc2c3n(c(=NC(=O)c4cnc(N)nc4)nc12)CCN3,IC50,second compound 0.00316 µM,0.0382 µM
same,IC50,second compound 0.01 µM,< 0.0316 µM
same,IC50,second compound 0.0316 µM,< 0.0316 µM
same,IC50,second compound 0.1 µM,< 0.0316 µM
same,IC50,second compound 0.316 µM,< 0.0316 µM
same,IC50,second compound 1 µM,< 0.0316 µM
same,"viability, T/C",[1],51.4%
same,"viability, T/C",[2],42.5%
same,"viability, T/C",[3],28.6%
same,"viability, T/C",[4],18.1%
same,"viability, T/C",[5],14.3%
same,"viability, T/C",[6],11%
same,"viability, T/C",[7],44.5%
same,"viability, T/C",[8],32.1%
same,"viability, T/C",[9],21.4%
same,"viability, T/C",[10],12.2%
same,"viability, T/C",[11],9.48%
same,"viability, T/C",[12],7.46%
same,"viability, T/C",[13],19.3%
same,"viability, T/C",[14],14.8%
same,"viability, T/C",[15],8.54%
same,"viability, T/C",[16],5.82%
same,"viability, T/C",[17],4.42%
same,"viability, T/C",[18],2.75%
same,"viability, T/C",[19],6.44%
same,"viability, T/C",[20],4.39%
same,"viability, T/C",[21],3.29%
same,"viability, T/C",[22],2.41%
same,"viability, T/C",[23],2.36%
same,"viability, T/C",[24],0.87%
same,"viability, T/C",[25],1.92%
same,"viability, T/C",[26],1.3%
same,"viability, T/C",[27],1.85%
same,"viability, T/C",[28],1.35%
same,"viability, T/C",[29],0.41%
same,"viability, T/C",[30],0.33%
same,"viability, T/C",[31],0.78%
same,"viability, T/C",[32],0.82%
same,"viability, T/C",[33],0.76%
same,"viability, T/C",[34],0.86%
same,"viability, T/C",[35],1.32%
same,"viability, T/C",[36],0.5%
CC(=O)c1c(C)c2cnc(Nc3ccc(N4CCNCC4)cn3)nc2n(C2CCCC2)c1=O + CC(Nc1ccc2c(c1)OCCn1cc(N3C(=O)OCC3C(F)F)nc1-2)C(N)=O,IC50,second compound 0.00316 µM,> 0.1 µM
same,IC50,second compound 0.01 µM,> 0.1 µM
same,IC50,second compound 0.0316 µM,> 0.1 µM
same,IC50,second compound 0.1 µM,< 0.000316 µM
same,IC50,second compound 0.316 µM,< 0.000316 µM
same,IC50,second compound 1 µM,< 0.000316 µM
same,"viability, T/C",[37],85.7%
same,"viability, T/C",[38],85.3%
same,"viability, T/C",[39],94.5%
same,"viability, T/C",[40],95.2%
same,"viability, T/C",[1],100%
same,"viability, T/C",[2],86.7%
same,"viability, T/C",[41],74.2%
same,"viability, T/C",[42],82.3%
same,"viability, T/C",[43],78.5%
same,"viability, T/C",[44],85.9%
same,"viability, T/C",[7],89.2%
same,"viability, T/C",[8],73%
same,"viability, T/C",[45],50.3%
same,"viability, T/C",[46],58.7%
same,"viability, T/C",[47],53.9%
same,"viability, T/C",[48],49.1%
same,"viability, T/C",[13],64.5%
same,"viability, T/C",[14],58.6%
same,"viability, T/C",[49],40.4%
same,"viability, T/C",[50],42.6%
same,"viability, T/C",[51],42%
same,"viability, T/C",[52],44.3%
same,"viability, T/C",[19],47.7%
same,"viability, T/C",[20],42.1%
same,"viability, T/C",[53],26.7%
same,"viability, T/C",[54],27%
same,"viability, T/C",[55],28%
same,"viability, T/C",[56],28%
same,"viability, T/C",[25],30.8%
same,"viability, T/C",[26],29%
same,"viability, T/C",[57],20.4%
same,"viability, T/C",[58],20.4%
same,"viability, T/C",[59],24.1%
same,"viability, T/C",[60],24.2%
same,"viability, T/C",[31],27.8%
same,"viability, T/C",[32],25.9%
